Results on three compounds are retold here after EP0943336A1, “PEPTIDE-CONTAINING PHARMACEUTICAL COMPOSITIONS FOR ORAL ADMINISTRATION” (DOTT RESEARCH LABORATORY, priority 1996, dated 1999).

Like-named read-outs stand apart in the source and are kept apart here.

The nature of series [1]: Absorption after oral administration of buserelin composition (blood buserelin level, direct method). It counts as in vivo, cynomolgus monkeys. Conditions: calcium carbonate carrier, enteric capsules; for level at 2 h / level at 2.5 h: cynomolgus monkey, blood, po; for level at 2 h: 120 min after oral dose; for level at 2.5 h: 150 min after oral dose. An excerpt:
The particle diameter of calcium carbonate as the carrier was 40 to 45 µm.

Series [2] in a line: Absorption after oral administration of PTH (1-34) composition with diclofenac (blood PTH (1-34) level, ELISA). It counts as in vivo, cynomolgus monkeys. Conditions: 10 mg diclofenac added to PTH (1-34)/magnesium oxide composition. The text has this:
(§1) Then, the resultant mixture was filled in enteric coating capsules.
For orientation: In an ELISA, binding on a coated surface is turned into a signal by an enzyme label.

On the set-up of series [3]: species or system cynomolgus monkeys. Conditions: cynomolgus monkey, in vivo.
From the text: as §1

The conditions of series [4]: cynomolgus monkey, in vivo. As for the experimental part:
Both components were mixed to make a composition in which the PTH (1-34) content was 600 µg/200 mg, and the resultant mixture was filled in enteric coating capsules.
The particle diameter of calcium carbonate, AW ceramics, and magnesium oxide used as the carrier was 40 to 45 µm.
A single oral dose of the above-mentioned composition was administered to two cynomolgus monkeys weighing 5 kg. Their blood samples were collected before dosing, and at 30, 60, 90, 120, 180, 240, 300, and 360 minutes after dosing to determine the blood PTH (1-34) level by using ELISA with a 1-34PTH2 antibody.

For `CCNC(=O)[C@@H]1CCCN1C(=O)[C@H](CCCNC(=N)N)NC(=O)[C@H](CC(C)C)NC(=O)[C@@H](COC(C)(C)C)NC(=O)[C@H](Cc1ccc(O)cc1)NC(=O)[C@H](CO)NC(=O)[C@H](Cc1c[nH]c2ccccc12)NC(=O)[C@H](Cc1cnc[nH]1)NC(=O)[C@@H]1CCC(=O)N1` [buserelin, Buserelin], the Blood buserelin level is 30 or less pg/ml in series [1] (30 min after oral dose, Animal No. 1); 30 or less pg/ml in series [1] (30 min after oral dose, Animal No. 2); 30 or less pg/ml in series [1] (30 min after oral dose, Animal No. 3); 30 or less pg/ml in series [1] (45 min after oral dose, Animal No. 1); 30 or less pg/ml in series [1] (45 min after oral dose, Animal No. 2); 30 or less pg/ml in series [1] (45 min after oral dose, Animal No. 3). For the same compound, the Blood buserelin level in series [1] (60 min after oral dose, Animal No. 1) is on record as 30 or less pg/ml; in series [1] (60 min after oral dose, Animal No. 2), 30 or less pg/ml; in series [1] (60 min after oral dose, Animal No. 3), 30 or less pg/ml; in series [1] (Before dosing, Animal No. 1, oral), 30 or less pg/ml; in series [1] (Before dosing, Animal No. 2, oral), 30 or less pg/ml; in series [1] (Before dosing, Animal No. 3, oral) it was 30 or less pg/ml. Further, the level at 2 h in series [1] (Animal No. 1) turned out to be 0.066 ng/mL; in series [1] (Animal No. 2) it was 0.107 ng/mL; in series [1] (Animal No. 3) it was 0.053 ng/mL. Moreover, the values for the level at 2.5 h in series [1] (Animal No. 1), in series [1] (Animal No. 2) and in series [1] (Animal No. 3) were 0.081 ng/mL, 0.193 ng/mL and 0.07 ng/mL, respectively. Moreover, in series [1], the “absorption after oral administration (in words)” value is listed as “well absorbed”.

For `O=C(O)Cc1ccccc1Nc1c(Cl)cccc1Cl` [diclofenac], the “effect of addition on absorption of PTH (1-34) (in words)” value in series [2] is “enhanced its absorption”.

For the compound PTH (1-34), the “absorption after oral administration (in words)” value in series [3] and in series [4] was “well absorbed” in each case.
